Data: patent US20240374573A1, “IMIDAZOLE CONTAINING COMPOUNDS, DERIVATIVES THEREFORE, AND USES THEREOF” (AglaeaPharma Inc., priority 2023, published 2024)

Biological target: T1, α2AAR (α2A-adrenergic receptor) (Homo sapiens, UniProt P08913)
T1 construct: expressed in transfected cells; host or cells: HEK293
T1 sequence (P08913 1-465): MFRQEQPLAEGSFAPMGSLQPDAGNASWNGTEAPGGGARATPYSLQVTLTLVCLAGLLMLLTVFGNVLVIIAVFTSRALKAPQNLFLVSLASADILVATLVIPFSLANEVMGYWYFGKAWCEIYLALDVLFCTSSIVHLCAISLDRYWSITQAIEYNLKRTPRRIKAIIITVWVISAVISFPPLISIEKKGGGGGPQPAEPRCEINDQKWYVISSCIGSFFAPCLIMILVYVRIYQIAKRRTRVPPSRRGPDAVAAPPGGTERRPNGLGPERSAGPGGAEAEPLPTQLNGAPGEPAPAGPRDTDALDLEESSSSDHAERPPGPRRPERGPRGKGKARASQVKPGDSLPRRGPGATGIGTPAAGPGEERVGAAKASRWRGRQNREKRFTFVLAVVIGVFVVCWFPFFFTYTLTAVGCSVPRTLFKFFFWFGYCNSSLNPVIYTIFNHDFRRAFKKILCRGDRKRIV
Experiment: α2AAR FLIPR assay (agonist activity)
Type: cell-based
Details: FLIPR, α2AAR cell line hosted in HEK293 cells; read-out: α2A agonist activity (EC50)
Procedure: This experimental protocol involved cell seeding and a FLIPR assay using the α2AAR (α2A-adrenergic receptor) cell line hosted in HEK293 cells. […] On Day 1, the cell seeding process started with the removal of the culture medium, followed by rinsing the cells with DPBS (21-031-CVC, Corning). […] The cells were detached, resuspended in growth media, and centrifuged at room temperature at 1000 rpm for 5 minutes. After discarding the supernatant, the cell pellet was resuspended in growth media to a concentration of 10× 10^5 cells per mL. This suspension was added to 384-well plates (19-Jul-38, Greiner) at 20 μL per well and incubated overnight at 37° C. in 5% CO2.
A 250 mM Probenecid solution was prepared in this buffer. The Fluo-4 Direct™ Loading Buffer was made by dissolving Fluo-4 Direct™ crystals (F10471, Invitrogen) in the FLIPR Assay Buffer and adding Probenecid. The buffer was then vortexed and allowed to stand for over 5 minutes, shielded from light. For the FLIPR procedure, testing compounds for agonist activite were serially diluted and transferred to a 384-well compound plate (25-Jan-39, Greiner). The cell plate was then treated with 2× Fluo-4 Direct™ loading buffer and incubated for 50 minutes at 37° C. in a 5% CO2 atmosphere, followed by 10 minutes at room temperature. Subsequently, the FLIPR assay buffer was added to the compound plate, which is then centrifuged.
The cell plate was analyzed in the FLIPR Tetra+ System for fluorescence signals. For the agonist test, reference compounds were added to the cell plates, and fluorescence was measured. The “Max-Min” calculation began from Read 1 to the maximum allowed. The data were analyzed using Prism software to calculate activation percentage for agonists and inhibition percentage for antagonists. The results were then fitted using specific models to determine EC50 for agonists.
The experimental protocol utilized various reagents and apparatus, including Penicillin/Streptomycin (100×) (SV30010, Hyclone), Poly-L-lysine hydrobromide (P1399, Sigma), and different types of 384-well plates such as the 384-Well PP 2.0 Microplate (PP-0200, LABCYTE) and 384 well Low Dead Volume Microplate (LP-0200, LABCYTE). The use of specific reference compounds like UK14304 was also integral to the assay.

Compound	EC50
CONC(=O)c1ccc2ccccc2c1Nc1ccncc1 [compound 601]	50 to 250 nM
Cc1cccc(C(c2c[nH]cn2)c2cccc(S(N)(=O)=O)c2O)c1C (stereo not drawn) [compound 150]	50 to 250 nM
Cc1cccc(C(c2cccc(NC(=O)CC#N)c2)c2c[nH]cn2)c1C (stereo not drawn) [compound 10]	10 to 50 nM
COCCOCCOCCOCCOCCOc1ccc(C(c2c[nH]cn2)c2cccc(C)c2C)cc1 (stereo not drawn) [compound 15]	> 1000 nM
Cc1cccc(C(c2cccc(Nc3ccccn3)c2)c2c[nH]cn2)c1C (stereo not drawn) [compound 59]	50 to 250 nM
COCCOCCOCCOCC(c1c[nH]cn1)c1cccc(C)c1C (stereo not drawn) [compound 16]	10 to 50 nM
Cc1cccc(C(c2cccc(N)c2)c2c[nH]cn2)c1C (stereo not drawn) [compound 39]	50 to 250 nM
Cc1cccc(C(c2c[nH]cn2)c2cccc(C(N)=O)c2Cl)c1C (stereo not drawn) [compound 38]	10 to 50 nM
CONC(=O)c1cccc(C(c2c[nH]cn2)c2cccc(C)c2C)c1 (single isomer, unassigned) [1-A]	> 1000 nM
Cc1cccc(C(c2cccc(NS(=O)(=O)C[C@@H]3CCCO3)c2)c2c[nH]cn2)c1C (stereo partly drawn) [compound 172]	10 to 50 nM
Cc1cccc(C(c2cccc(NC3(C)COC3)c2)c2c[nH]cn2)c1C (stereo not drawn) [compound 185]	50 to 250 nM
Cc1cccc(C(CN2CCC(NS(C)(=O)=O)CC2)c2c[nH]cn2)c1C (stereo not drawn) [compound 168]	50 to 250 nM
Cc1cccc(C(c2cccc(C(=O)N(C)C)c2)c2c[nH]cn2)c1C (stereo not drawn) [compound 33]	50 to 250 nM
Cc1cccc(C(c2cccc(NC(=O)CC#N)c2)c2c[nH]cn2)c1C (single isomer, unassigned) [10-A]	> 1000 nM
Cc1cccc(C(c2ccc(C(=O)O)cc2)c2c[nH]cn2)c1C (stereo not drawn) [compound 12]	> 1000 nM
CONC(=O)c1cccc(C(c2c[nH]cn2)c2cccc(Cl)c2C)c1 (stereo not drawn) [compound 36]	50 to 250 nM
CNC(=O)Nc1ccc(C(c2c[nH]cn2)c2cccc(C)c2C)cc1 (stereo not drawn) [compound 14]	> 1000 nM
Cc1cccc(C(c2ccc(O)cc2)c2c[nH]cn2)c1C (stereo not drawn) [compound 13]	> 1000 nM
COCCOCCOCCOCCOCCOCCCC(c1c[nH]cn1)c1cccc(C)c1C (stereo not drawn) [compound 21]	> 1000 nM
Cc1cccc(C(c2c[nH]cn2)c2ccccc2C(N)=O)c1C (stereo not drawn) [compound 34]	> 1000 nM
Cc1cccc(C(c2cccc(C(=O)N3CCOCC3)c2)c2c[nH]cn2)c1C (stereo not drawn) [compound 23]	250 to 1000 nM
COCCOCCOCCOCCOCCc1ccc2ccccc2c1Nc1ccncc1 [compound 602]	50 to 250 nM
CONC(=O)c1cccc(C(c2c[nH]cn2)c2cccc(O)c2C)c1 (stereo not drawn) [compound 7]	250 to 1000 nM

Compound	EC50
Cc1cccc(C(COCCOCCN)c2c[nH]cn2)c1C (stereo not drawn) [compound 19]	50 to 250 nM
Cc1cccc(C(c2cccc(NC(=O)C3C4CC5CC(C4)CC3C5)c2)c2c[nH]cn2)c1C (stereo not drawn) [compound 170]	50 to 250 nM
Cc1cccc(C(COCCOCCNS(C)(=O)=O)c2c[nH]cn2)c1C (stereo not drawn) [compound 18]	10 to 50 nM
Cc1cccc(C(c2cccc(NC(=O)CC3CCCCC3)c2)c2c[nH]cn2)c1C (stereo not drawn) [compound 178]	10 to 50 nM
Cc1cccc(C(c2c[nH]cn2)c2cccc(C(N)=O)c2O)c1C (stereo not drawn) [compound 9]	10 to 50 nM
Cc1cscc1C(c1cccc(NS(C)(=O)=O)c1)c1c[nH]cn1 (stereo not drawn) [compound 403]	50 to 250 nM
Cc1cccc(C(c2cccc(C(N)=O)c2)c2c[nH]cn2)c1C (single isomer, unassigned) [5-A]	> 1000 nM
COCCOCCNC(=O)c1cccc(C(c2c[nH]cn2)c2cccc(C)c2C)c1 (stereo not drawn) [compound 3]	10 to 50 nM
CNC(=O)NCCOCCOCC(c1c[nH]cn1)c1cccc(C)c1C (single isomer, unassigned) [17-A]	> 1000 nM
CONC(=O)c1cccc(C(c2c[nH]cn2)c2cccc(C(F)(F)F)c2C)c1 (stereo not drawn) [compound 52]	250 to 1000 nM
CONC(=O)c1cccc(C(c2c[nH]cn2)c2cccc(C)c2C)c1O (stereo not drawn) [compound 8]	10 to 50 nM
CC(=O)NCCOCCOCC(c1c[nH]cn1)c1cccc(C)c1C (stereo not drawn) [compound 25]	50 to 250 nM
Cc1cccc(C(Cc2ccc(C(C)C(=O)O)cc2)c2c[nH]cn2)c1C (single isomer, unassigned) [174-A]	> 1000 nM
Cc1cccc(C(c2cccc(NS(=O)(=O)CC3CCCCO3)c2)c2c[nH]cn2)c1C (stereo not drawn) [compound 173]	10 to 50 nM
CNC(=O)NCCOCCOCC(c1c[nH]cn1)c1cccc(C)c1C (stereo not drawn) [compound 17]	10 to 50 nM
Cc1cccc(C(Cc2ccc(C(C)C(=O)O)cc2)c2c[nH]cn2)c1C (single isomer, unassigned) [174-C]	250 to 1000 nM
Cc1cccc(C(c2cccc(C(=O)O)c2)c2c[nH]cn2)c1C (stereo not drawn) [compound 11]	250 to 1000 nM
Cc1cccc(C(c2cccc(OCCNC(=O)Nc3ccncn3)c2)c2c[nH]cn2)c1C (stereo not drawn) [compound 4]	50 to 250 nM
Cc1cccc(C(c2cccc(C(N)=O)c2)c2c[nH]cn2)c1C (stereo not drawn) [compound 5]	10 to 50 nM
CONC(=O)c1cccc(C(c2c[nH]cn2)c2cccc(Cl)c2Cl)c1 (stereo not drawn) [compound 35]	50 to 250 nM
Cc1cccc(C(c2cccc(C(=O)NC3CCOCC3)c2)c2c[nH]cn2)c1C (single isomer, unassigned) [121-A]	> 1000 nM
COCCOCCOCC(c1c[nH]cn1)c1cccc(C)c1C (stereo not drawn) [compound 37]	50 to 250 nM

Same assay, conditions: α2A agonist activity (EC50, nM)

Compound	EC50
CNC(=O)c1cccc(C(c2c[nH]cn2)c2cccc(C)c2C)c1 (stereo not drawn) [compound 6]	10 to 50 nM
CNCCOCCOCC(c1c[nH]cn1)c1cccc(C)c1C (stereo not drawn) [compound 24]	250 to 1000 nM

Biological target: T2, α2AAR (Homo sapiens, UniProt P08913)
T2 construct: host or cells: HEK293 (membranes)
T2 sequence (P08913 1-465): T1 sequence (P08913 1-465)
Experiment: α2AAR binding assay ([3H]-RX 821002 radioligand)
Details: [3H]-RX 821002 0.5 nM, HEK293 membranes; read-out: α2A affinity (Ki)
Procedure: The α2AR Binding Assay was conducted using a stable HEK293 cell line, specifically constructed by WuXi AppTec for targeting α2AAR. […] Both the assay and wash buffers consist of 50 mM Tris-HCl at a pH of 7.4 (Tris base, Sigma, T1503-1 KG).
The procedure initiated with the preparation of test compounds and a reference compound, yohimbine (Sigma, Y3125), through an 8-point 4-fold serial dilution, transferring 1 μL of each to the assay plate. […] After scaling, the plates were agitated at room temperature for one hour. Subsequently, the Unifilter-96 GF/C filter plates were pre-soaked with 0.3% PEI (Sigma, P3143) for at least half an hour. The reaction mixtures were then filtered and washed four times with cold wash buffer using a Perkin Elmer Cell harvester. Post-filtration, the plates were dried at 50° C. for one hour. […] The top of the plates was then sealed with TopSeal-A sealing film. The trapped 3H was quantified using a Perkin Elmer MicroBeta2 Reader. […] Finally, the data were analyzed with Prism 5.0 software, employing the “log (inhibitor) vs. response-Variable slope” model for data fitting. This comprehensive process ensured precise assessment of the binding affinity of compounds to the α2AAR.

Compound	Ki
Cc1cccc(C(Cc2cccc(NS(C)(=O)=O)c2)C2=NCCN2)c1C (stereo not drawn) [compound 510]	50 to 250 nM
Cc1cccc(C(c2cccc(NS(=O)(=O)C(F)(F)F)c2)c2c[nH]cn2)c1C (stereo not drawn) [compound 77]	250 to 1000 nM
Cc1cccc(C(c2cccc(COCCNS(C)(=O)=O)c2)c2c[nH]cn2)c1C (stereo not drawn) [compound 116]	10 to 50 nM
Cc1cccc(C(Cc2ccc(NS(C)(=O)=O)cc2)C2=NCCN2)c1C (stereo not drawn) [compound 518]	50 to 250 nM
Cc1cccc(C(CCCCNS(=O)(=O)C2CCOCC2)c2c[nH]cn2)c1C (stereo not drawn) [compound 250]	50 to 250 nM
C=CC(=O)Nc1cccc(C(c2c[nH]cn2)c2cccc(C)c2C)c1 (stereo not drawn) [compound 129]	50 to 250 nM
Cc1cccc(C(c2cccc(C(=O)NCC3CCOCC3)c2)c2c[nH]cn2)c1C (single isomer, unassigned) [98-A]	250 to 1000 nM
COCCOCc1cccc(Cl)c1NC1=NCCN1 [compound 520]	250 to 1000 nM
Cc1cccc(C(c2cccc(NC(=O)CC[N+](C)(C)C)c2)c2c[nH]cn2)c1C (stereo not drawn) [compound 144]	50 to 250 nM
Cc1cccc(C(c2cccc(C#N)c2)c2c[nH]cn2)c1C (stereo not drawn) [compound 68]	50 to 250 nM
Cc1cccc(C(Cc2ccc(C(N)=O)nc2)c2c[nH]cn2)c1C (stereo not drawn) [compound 238]	50 to 250 nM
Cc1cccc(C(c2c[nH]cn2)C2CCCC(C(N)=O)C2)c1C (stereo not drawn) [compound 92]	> 1000 nM
Cc1cccc(C(c2cccc(NCCNS(C)(=O)=O)c2)c2c[nH]cn2)c1C (stereo not drawn) [compound 83]	50 to 250 nM
